Legend:
CydDC [1] = molecular target: T1, CydDC (Escherichia coli, UniProt P23886+P29018); assay: single-particle cryo-EM structure; assay type: binding; settings: IFasym apo state, active turnover
T1 construct: gene cydC; full-length heterodimer, C-terminal His6 on CydC, from pTTQ18 (pcydDC) in E. coli BL21 pLysS (DE3); purified in DDM (ATPase assays) or LMNG (cryo-EM)

CydDC [2] = molecular target: T2, CydDC (Escherichia coli, UniProt P23886+P29018, P23886:E500Q); assay: single-particle cryo-EM structure; settings: Occ return apo state; both nucleotide-binding sites; turnover dataset with heme, ATP and Mg2+
T2 construct: gene cydC; full-length heterodimer, C-terminal His6 on CydC, from pTTQ18 (pcydDC) in E. coli BL21 pLysS (DE3); purified in DDM (ATPase assays) or LMNG (cryo-EM)

[3] = test system: Nc1ncnc2c1ncn2[C@@H]1O[C@H](COP(=O)(O)OP(=O)(O)OP(=O)(O)O)[C@@H](O)[C@H]1O; assay: purified protein; settings: 0.3 µM heme, 3 mM MgCl2, pH 7.0, 37 °C, 0.02% DDM

T1 sequence (P23886 whole entry): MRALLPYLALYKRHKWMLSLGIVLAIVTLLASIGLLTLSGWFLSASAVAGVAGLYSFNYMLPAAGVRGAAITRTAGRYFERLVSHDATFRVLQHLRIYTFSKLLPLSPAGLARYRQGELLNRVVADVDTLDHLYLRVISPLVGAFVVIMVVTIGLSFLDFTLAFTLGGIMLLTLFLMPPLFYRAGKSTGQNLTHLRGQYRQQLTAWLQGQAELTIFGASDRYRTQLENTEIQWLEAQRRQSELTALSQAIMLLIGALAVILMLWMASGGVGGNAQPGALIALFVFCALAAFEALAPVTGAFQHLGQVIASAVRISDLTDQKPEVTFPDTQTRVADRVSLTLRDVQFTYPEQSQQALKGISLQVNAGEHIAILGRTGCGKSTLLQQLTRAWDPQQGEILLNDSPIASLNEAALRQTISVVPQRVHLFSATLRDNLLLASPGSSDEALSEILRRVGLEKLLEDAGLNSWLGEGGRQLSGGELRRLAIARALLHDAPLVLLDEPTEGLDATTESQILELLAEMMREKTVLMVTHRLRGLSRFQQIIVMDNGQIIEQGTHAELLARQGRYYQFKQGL
T1 sequence (P29018 whole entry): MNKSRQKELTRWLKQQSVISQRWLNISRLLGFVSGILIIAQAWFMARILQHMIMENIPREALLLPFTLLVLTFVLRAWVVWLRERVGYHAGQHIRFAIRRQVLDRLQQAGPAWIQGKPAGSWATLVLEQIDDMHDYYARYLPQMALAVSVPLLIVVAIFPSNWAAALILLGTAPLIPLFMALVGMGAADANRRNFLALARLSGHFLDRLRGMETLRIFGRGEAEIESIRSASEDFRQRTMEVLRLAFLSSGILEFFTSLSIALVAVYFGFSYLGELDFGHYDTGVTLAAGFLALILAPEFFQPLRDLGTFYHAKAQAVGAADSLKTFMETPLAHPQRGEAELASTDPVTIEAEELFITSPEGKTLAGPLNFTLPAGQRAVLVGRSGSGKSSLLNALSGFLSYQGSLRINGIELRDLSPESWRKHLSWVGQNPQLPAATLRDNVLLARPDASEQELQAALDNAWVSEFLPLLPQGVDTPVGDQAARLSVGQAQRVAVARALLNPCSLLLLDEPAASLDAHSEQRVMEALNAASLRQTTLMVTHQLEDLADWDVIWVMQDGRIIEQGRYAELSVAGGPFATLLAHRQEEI
T2 sequence (P23886 whole entry E500Q): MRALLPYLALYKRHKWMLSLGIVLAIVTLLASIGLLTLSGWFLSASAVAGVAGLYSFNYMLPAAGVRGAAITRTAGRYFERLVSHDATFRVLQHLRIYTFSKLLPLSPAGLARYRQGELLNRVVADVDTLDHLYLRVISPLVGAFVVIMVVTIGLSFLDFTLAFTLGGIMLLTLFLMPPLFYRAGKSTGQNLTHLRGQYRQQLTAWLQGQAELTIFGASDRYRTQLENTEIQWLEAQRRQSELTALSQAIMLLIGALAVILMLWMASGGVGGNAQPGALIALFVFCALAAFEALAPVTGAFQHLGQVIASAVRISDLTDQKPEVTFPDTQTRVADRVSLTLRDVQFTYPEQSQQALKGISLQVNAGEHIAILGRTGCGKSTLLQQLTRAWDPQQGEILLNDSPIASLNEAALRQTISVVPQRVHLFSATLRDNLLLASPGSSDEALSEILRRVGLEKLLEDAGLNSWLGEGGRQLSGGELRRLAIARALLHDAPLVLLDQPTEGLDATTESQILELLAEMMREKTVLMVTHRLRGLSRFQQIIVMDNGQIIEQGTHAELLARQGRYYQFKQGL
T2 sequence (P29018 whole entry): as the sequence (P29018 whole entry) above

Nc1ncnc2c1ncn2[C@@H]1O[C@H](COP(=O)(O)OP(=O)(O)O)[C@@H](O)[C@H]1O [ADP]
single-particle cryo-EM structure (CydDC [1]; site NBS of CydC, with Pi): obtained from the turnover dataset of CydDC to ADP and Pi

Nc1ncnc2c1ncn2[C@@H]1O[C@H](COP(=O)(O)OP(=O)(O)OP(=O)(O)O)[C@@H](O)[C@H]1O [ATP]
single-particle cryo-EM structure (CydDC [1]; degenerate site NBS of CydD): NBS^D conformations in the Occreturnapo (ATP), IFasymapo (ATP)
single-particle cryo-EM structure (CydDC [2]): The left panel shows a close-up view of ATP bound to NBS^D

CydDC (Escherichia coli K-12)
Km [3]: 91.9 ± 9.7 µM

Source: publication PMC10374445 (Nature Chemical Biology, 2023)
